ChEMBL document CHEMBL1150494, “Inhibitory effect on HT-1080 tumor cell invasion in vitro using 9-(2-hydroxyethyl)adenine 2-phosphates” (1997)

How the values were obtained:
HT-1080 [1] = experiment: In vitro inhibitory activity against HT1080 tumor cell invasion using Matrigel (MG) at a concentration of 100 uM; type: functional, Homo sapiens
HT-1080 [2] = experiment: In vitro inhibitory activity against HT1080 tumor cell invasion using Matrigel (MG) at a concentration of 10 uM; type: functional, Homo sapiens
[3] = molecular target: Matrix metalloproteinase-9 (Homo sapiens) (UniProt P14780); experiment: Inhibition of collagen IV degradation by matrix metalloprotease-9 at 10 uM
[4] = molecular target: Matrix metalloproteinase-9 (Homo sapiens) (UniProt P14780); experiment: Inhibition of collagen IV degradation by matrix metalloprotease-9 at 100 uM

Matrix metalloproteinase-9 (Homo sapiens), sequence (P14780 whole entry): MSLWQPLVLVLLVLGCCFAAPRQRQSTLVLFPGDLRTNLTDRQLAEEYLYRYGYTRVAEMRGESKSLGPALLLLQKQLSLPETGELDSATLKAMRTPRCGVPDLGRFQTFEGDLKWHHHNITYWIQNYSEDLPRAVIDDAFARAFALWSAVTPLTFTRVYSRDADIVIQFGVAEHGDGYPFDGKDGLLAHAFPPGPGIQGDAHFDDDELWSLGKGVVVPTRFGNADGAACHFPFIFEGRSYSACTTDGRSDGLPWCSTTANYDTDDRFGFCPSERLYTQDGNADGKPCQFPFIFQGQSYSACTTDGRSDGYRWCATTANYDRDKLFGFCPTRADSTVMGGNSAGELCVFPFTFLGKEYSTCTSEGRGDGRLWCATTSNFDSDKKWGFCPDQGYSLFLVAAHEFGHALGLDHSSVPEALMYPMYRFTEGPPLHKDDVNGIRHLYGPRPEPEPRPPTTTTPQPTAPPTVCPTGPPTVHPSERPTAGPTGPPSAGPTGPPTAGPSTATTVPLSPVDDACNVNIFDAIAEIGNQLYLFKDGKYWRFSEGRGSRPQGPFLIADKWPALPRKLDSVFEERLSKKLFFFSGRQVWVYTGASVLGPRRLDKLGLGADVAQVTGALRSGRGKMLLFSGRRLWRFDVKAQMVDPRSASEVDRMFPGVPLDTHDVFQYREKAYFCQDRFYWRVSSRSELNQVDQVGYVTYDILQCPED

Inhibition ratio [3] [%]	Inhibition ratio [4] [%]	Structure (SMILES)	Inhibition ratio (HT-1080 [1]) [%]	Inhibition ratio (HT-1080 [2]) [%]
2	18	Nc1ncnc2c1ncn2CCO	~50	~2
23	41	Nc1ncnc2c1nc(Br)n2CCOP(=O)(O)O	~41	~23
46	55	CNc1ncnc2c1ncn2CCOP(=O)(O)O	~54	~46
53	69	Nc1ncnc2c1ncn2CCOP(=O)(O)OP(=O)(O)OP(=O)(O)O	~36	~35
32	57	Nc1ncnc2c1ncn2CCOP(=O)(O)O	53	46
	12	O=P(O)(O)OCCn1cnc2c(Cl)ncnc21	~12	
